# Assays:
# [1] = molecular target: T1, cGMP PDE5 (human corp. cav.) (Homo sapiens, UniProt O76074); test: Phosphodiesterase (PDE) inhibitory activity, cGMP PDE5; assay type: biochemical; settings: enzyme from human corpus cavernosum
# T1 construct: from tissue; host or cells: human corpus cavernosum
# Description: Compounds of the present invention are potent and selective cGMP PDE5 inhibitors. In vitro PDE inhibitory activities against cyclic guanosine 3′,5′-monophosphate (cGMP) and cyclic adenosine 3′,5′-monophosphate (cAMP) phosphodiesterases were determined by measurement of their IC50 values (the concentration of compound required for 50% inhibition of enzyme activity).
# The required PDE enzymes were isolated from a variety of sources, including human corpus cavernosum, human platelets, human cardiac ventricle, human skeletal muscle and human and canine retina, essentially by the method of W. J. Thompson and M. M. Appleman (Biochem., 1971, 10, 311). […]
# Assays were performed either using a modification of the “batch” method of W. J. Thompson et al. (Biochem., 1979, 18, 5228) or using a scintillation proximity assay for the direct detection of AMP/GMP using a modification of the protocol described by Amersham plc under product code TRKQ7090/7100. […] Plates were re-sealed and shaken for 20 min, after which the beads were allowed to settle for 30 min in the dark and then counted on a TopCount plate reader (Packard, Meriden, Conn.). Radioactivity units were converted to % activity of an uninhibited control (100%), plotted against inhibitor concentration and inhibitor IC50 values obtained using the ‘Fit Curve’ Microsoft Excel extension or in-house equivalent.
# [2] = In vitro metabolism in human hepatic microsomal fractions (HLM half-life); assay type: in vitro ADME; settings: human liver microsomes, initial substrate concentration 1 μM, 37° C.
# Description: In vitro metabolism experiments were carried out in the hepatic microsomal fractions from man. Transplant-quality human liver tissue was obtained from the International Institute for the Advancement of Medicine (Exton, Pa., USA). Microsomes were prepared according to the method described in Biochemical Pharmacology, […], 48, 2147-2156 and stored at −80° C. The concentrations of protein and cytochrome P450 were determined by standard methods described in Journal of Biological Chemistry, 1951, 193, 265-275 and Journal of Biological Chemistry, 1964, 239, 2370-2378.
# Microsomal incubations (1.5 ml) were prepared containing 0.5 μM cytochrome P450, 200 mM phosphate buffer (pH 7.4), 0.1 M MgCl2, 0.1 M isocitric acid, 1 unit/ml isocitrate dehydrogenase and 20 mM β-NADP. […] The extracts were evaporated to dryness and analysed by LC-MS/MS (Hewlett Packard HP1100 binary pump, Hypersil HS100 C18, 5 cm by 4.6 mm internal diameter, 5 μm column using a mobile phase of 2 mM ammonium acetate in 90:10 methanol/water, aqueous portion adjusted to pH 4 with glacial acetic acid, and a flowrate of 1 ml/min). […] Disappearance rate constants (k) in human microsomal preparations were determined by linear regression of the log ratio (compound under study/internal standard) versus time. The in vitro human microsomal half-lives were determined according to the equation t1/2=In 2/k. […]
HLM t1/2 [2],SMILES,IC50 [1],"half-life at 1 μM ([2]; pH 7.4, read-out: HLM t1/2)"
,"CCCCOc1ncc(C(C)=O)cc1-c1nn2c(CC)nc(C)c2c(=O)[nH]1 [Example 1, 2-(5-Acetyl-2-butoxy-3-pyridinyl)-7-ethyl-5-methylimidazo[5,1-f][1,2,4]triazin-4(3H)-one]",1.34 nM,21 min
,"CCCCOc1ncc(C(C)=O)cc1-c1nn2c(CC)nc(CCC)c2c(=O)[nH]1 [Example 2, 2-(5-Acetyl-2-butoxy-3-pyridinyl)-7-ethyl-5-propylimidazo[5,1-f][1,2,4]triazin-4(3H)-one]",1.96 nM,
4 min,"CCCc1nc(C)c2c(=O)[nH]c(-c3cc(S(=O)(=O)N4CCN(CC)CC4)ccc3OCC)nn12 [Comound A, 2-[2-ethoxy-5-(4-ethyl-piperazin-1-yl-1-sulphonyl)-phenyl]-5-methyl-7-propyl-3H-imidazo[5,1-f][1,2,4]triazin-4-one, reference compound]",,

# Reference: patent US6794387B2, “Pharmaceutically active compounds” (Pfizer Inc., priority 2001, dated 2004)
